Laboratory results published in ChEMBL document CHEMBL1138649, “Urea derivatives of STI571 as inhibitors of Bcr-Abl and PDGFR kinases” (Bioorg Med Chem Lett, 2004).

Columns and labels:
[1] = Inhibitory concentration required to inhibit PDGFR kinase was determined
[2] = molecular target: T1, Breakpoint cluster region protein (Homo sapiens, UniProt P11274); experiment: Inhibitory concentration required to inhibit Bcr-Abl tyrosine kinase
T1 sequence (P11274 whole entry): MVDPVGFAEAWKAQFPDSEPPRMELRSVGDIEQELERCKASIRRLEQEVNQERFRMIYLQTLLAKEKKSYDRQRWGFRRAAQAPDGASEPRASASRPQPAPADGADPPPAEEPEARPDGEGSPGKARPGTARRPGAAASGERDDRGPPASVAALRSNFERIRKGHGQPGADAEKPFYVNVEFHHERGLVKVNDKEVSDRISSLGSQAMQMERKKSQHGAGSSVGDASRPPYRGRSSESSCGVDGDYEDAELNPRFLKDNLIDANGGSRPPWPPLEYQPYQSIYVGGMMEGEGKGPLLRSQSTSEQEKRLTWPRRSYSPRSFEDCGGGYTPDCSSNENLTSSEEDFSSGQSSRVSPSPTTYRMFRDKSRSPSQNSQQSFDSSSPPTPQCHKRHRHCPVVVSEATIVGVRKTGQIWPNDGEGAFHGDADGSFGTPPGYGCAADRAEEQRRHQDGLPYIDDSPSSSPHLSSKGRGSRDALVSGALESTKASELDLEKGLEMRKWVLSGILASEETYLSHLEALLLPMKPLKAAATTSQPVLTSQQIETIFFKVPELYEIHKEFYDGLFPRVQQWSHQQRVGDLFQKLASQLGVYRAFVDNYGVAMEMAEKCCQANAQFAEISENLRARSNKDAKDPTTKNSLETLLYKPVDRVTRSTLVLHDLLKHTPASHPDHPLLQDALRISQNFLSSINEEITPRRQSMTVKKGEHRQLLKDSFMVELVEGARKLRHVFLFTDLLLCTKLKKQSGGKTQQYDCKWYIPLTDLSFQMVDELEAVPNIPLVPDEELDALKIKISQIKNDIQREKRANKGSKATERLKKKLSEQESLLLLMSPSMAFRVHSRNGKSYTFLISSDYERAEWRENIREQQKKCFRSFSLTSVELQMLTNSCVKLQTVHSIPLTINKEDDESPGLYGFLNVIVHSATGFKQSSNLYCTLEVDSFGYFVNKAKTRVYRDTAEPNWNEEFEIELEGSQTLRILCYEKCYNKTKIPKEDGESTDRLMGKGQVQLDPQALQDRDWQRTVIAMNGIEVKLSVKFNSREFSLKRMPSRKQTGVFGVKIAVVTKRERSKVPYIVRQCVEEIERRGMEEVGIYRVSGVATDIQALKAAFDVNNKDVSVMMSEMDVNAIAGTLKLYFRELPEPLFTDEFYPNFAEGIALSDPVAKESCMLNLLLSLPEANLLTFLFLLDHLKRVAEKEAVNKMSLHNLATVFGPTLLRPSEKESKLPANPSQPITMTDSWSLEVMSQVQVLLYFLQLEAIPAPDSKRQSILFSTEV

[3] = molecular target: Tyrosine-protein kinase ABL1 (Homo sapiens, UniProt P00519); experiment: Inhibitory concentration required to inhibit Abl tyrosine kinase
[4] = Maximum plasma concentration time in minutes was determined in mice after 20 mg/kg oral administration of the compound; assay type: ADME, organism-based; parameters: dose 20 mg/kg, route oral; conditions: mouse
[5] = Maximum plasma concentration was determined in mice after 20 mg/kg oral administration of the compound; assay type: ADME, organism-based; parameters: dose 20 mg/kg, route oral; conditions: mouse
[6] = Plasma concentration after 120 minutes gavage was determined in mice after 20 mg/kg oral administration of the compound; assay type: ADME, organism-based; parameters: dose 20 mg/kg, route oral; conditions: mouse, read-out: C120

Sequence of Tyrosine-protein kinase ABL1 (P00519 whole entry): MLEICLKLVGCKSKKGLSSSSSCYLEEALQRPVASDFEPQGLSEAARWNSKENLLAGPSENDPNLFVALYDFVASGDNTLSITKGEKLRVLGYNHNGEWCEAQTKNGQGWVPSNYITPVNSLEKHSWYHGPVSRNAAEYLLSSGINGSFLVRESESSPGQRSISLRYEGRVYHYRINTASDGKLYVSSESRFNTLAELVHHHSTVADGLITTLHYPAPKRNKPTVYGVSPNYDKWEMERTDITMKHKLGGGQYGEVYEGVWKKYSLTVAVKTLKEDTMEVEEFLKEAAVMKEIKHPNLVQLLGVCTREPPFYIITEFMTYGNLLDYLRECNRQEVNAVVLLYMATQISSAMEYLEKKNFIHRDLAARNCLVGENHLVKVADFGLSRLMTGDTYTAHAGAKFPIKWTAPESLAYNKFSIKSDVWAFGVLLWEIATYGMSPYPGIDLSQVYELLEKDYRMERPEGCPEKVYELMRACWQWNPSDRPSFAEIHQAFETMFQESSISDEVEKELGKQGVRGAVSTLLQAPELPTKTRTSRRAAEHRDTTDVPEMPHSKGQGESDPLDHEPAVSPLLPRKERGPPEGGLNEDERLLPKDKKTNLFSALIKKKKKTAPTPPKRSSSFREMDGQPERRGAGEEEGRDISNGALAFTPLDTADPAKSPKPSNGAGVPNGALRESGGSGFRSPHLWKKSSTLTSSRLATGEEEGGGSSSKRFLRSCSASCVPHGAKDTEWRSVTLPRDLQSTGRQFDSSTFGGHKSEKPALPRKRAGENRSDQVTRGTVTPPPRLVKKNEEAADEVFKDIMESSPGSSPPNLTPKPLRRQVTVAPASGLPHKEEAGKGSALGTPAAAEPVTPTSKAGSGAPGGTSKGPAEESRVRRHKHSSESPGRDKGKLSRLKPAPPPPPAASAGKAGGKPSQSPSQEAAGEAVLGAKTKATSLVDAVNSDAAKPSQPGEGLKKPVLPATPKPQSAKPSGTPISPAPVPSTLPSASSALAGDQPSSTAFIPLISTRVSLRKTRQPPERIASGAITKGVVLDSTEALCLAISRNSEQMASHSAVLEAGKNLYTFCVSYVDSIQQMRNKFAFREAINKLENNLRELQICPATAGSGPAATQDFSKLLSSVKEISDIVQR

IC50 [1] [nM]	IC50 [3] [nM]	SMILES	other results
> 3000	–	Cc1ccc(NC(=O)NCCCO)cc1Nc1nccc(-c2cccnc2)n1	–
> 2500	–	Cc1ccc(NC(=O)Nc2cccc(N3CCCC3)c2)cc1Nc1nccc(-c2cccnc2)n1	–
414	–	Cc1ccc(NC(=O)NCCCN2CCOCC2)cc1Nc1nccc(-c2cccnc2)n1	–
63	–	Cc1ccc(NC(=O)N2CCCCC2)cc1Nc1nccc(-c2cccnc2)n1	Tmax [4]: 30 min; Cmax [5]: 4320 nM; concentration at 2 h [6]: 510 nM
132	–	Cc1ccc(NC(=O)N2CCN(C)CC2)cc1Nc1nccc(-c2cccnc2)n1	IC50 ([2]; read-out: IC50): > 5000 nM
> 1300	–	Cc1ccc(NC(=O)NCCCn2ccnc2)cc1Nc1nccc(-c2cccnc2)n1	–
192	–	Cc1ccc(NC(=O)Nc2cccc(CN3CCN(C)CC3)c2)cc1Nc1nccc(-c2cccnc2)n1	–
> 1600	–	Cc1ccc(NC(=O)NCCCN(C)C)cc1Nc1nccc(-c2cccnc2)n1	–
176	–	Cc1ccc(NC(=O)N2CCC(N3CCCC3)CC2)cc1Nc1nccc(-c2cccnc2)n1	–
655	–	Cc1ccc(NC(=O)NCCN2CCCC2)cc1Nc1nccc(-c2cccnc2)n1	IC50 ([2]; read-out: IC50): > 9000 nM

The remaining lines, values behind:

SMILES	IC50 [1] [nM]	IC50 [3] [nM]	other results
Cc1ccc(NC(=O)N2CCN(Cc3ccncc3)CC2)cc1Nc1nccc(-c2cccnc2)n1	256	–	–
Cc1ccc(NC(=O)Nc2ccc(N(C)C)cc2)cc1Nc1nccc(-c2cccnc2)n1	1730	> 5000	IC50 ([2]; read-out: IC50): > 10000 nM
Cc1ccc(NC(=O)N(C)CCCO)cc1Nc1nccc(-c2cccnc2)n1	> 3000	–	–
CCN(CC)c1ccc(NC(=O)Nc2ccc(C)c(Nc3nccc(-c4cccnc4)n3)c2)cc1	2020	> 3400	IC50 ([2]; read-out: IC50): > 10000 nM
Cc1ccc(NC(=O)Nc2cccc(Cl)c2)cc1Nc1nccc(-c2cccnc2)n1	17	175	IC50 ([2]; read-out: IC50): 1000 nM
Cc1ccc(NC(=O)NCc2ccc(N(C)C)cc2)cc1Nc1nccc(-c2cccnc2)n1	236	–	–
Cc1ccc(NC(=O)Nc2cccnc2)cc1Nc1nccc(-c2cccnc2)n1	96	1000	–
Cc1ccc(NC(=O)Nc2cccc3[nH]ncc23)cc1Nc1nccc(-c2cccnc2)n1	375	–	–
Cc1ccc(NC(=O)Nc2ccccc2CN(C)C2CCCCC2)cc1Nc1nccc(-c2cccnc2)n1	100	870	–
Cc1ccc(NC(=O)Nc2cccc3ncccc23)cc1Nc1nccc(-c2cccnc2)n1	64	–	Tmax [4]: 30 min; Cmax [5]: 170 nM; concentration at 2 h [6]: 50 nM
CCN(CC)c1cccc(NC(=O)Nc2ccc(C)c(Nc3nccc(-c4cccnc4)n3)c2)c1	47	280	IC50 ([2]; read-out: IC50): > 1000 nM
Cc1ccc(NC(=O)Nc2cccc(N(C)C)c2)cc1Nc1nccc(-c2cccnc2)n1	26	56	Tmax [4]: 30 min; IC50 [2]: 573 nM; Cmax [5]: 1370 nM; concentration at 2 h [6]: 300 nM
